{"source": "ChEMBL document CHEMBL3044789", "about": "“Comparing weed and crop seedling response to pre-emergence pendimethalin application in Corchorus olitorius and Abelmoschus esculentus” (Crop Prot, 2006)", "key": {"Abelmoschus esculentus [1]": {"tested_on": "Abelmoschus esculentus", "experiment": "Phytotoxicity in Abelmoschus esculentus assessed as shoot length at 0.99 kg a.i/ha treated to soil after 7 weeks (reference value: 8.5 +/- 0.34 mm)", "format": "organism-based", "settings": "in vivo, other, 1176 h"}, "Abelmoschus esculentus [2]": {"tested_on": "Abelmoschus esculentus", "experiment": "Phytotoxicity in Abelmoschus esculentus assessed as crop seedling injury at 1.32 kg a.i/ha after 2 weeks relative to untreated control", "format": "organism-based", "settings": "in vivo, 336 h"}, "[3]": {"tested_on": "Rottboellia cochinchinensis", "experiment": "Herbicidal activity against Rottboellia cochinchinensis in Corchorus olitorius plots assessed as weed cover at 0.33 kg a.i/ha after 2 weeks (reference value: 81.7 +/- 0.43 %)", "format": "functional"}, "Cyperus rotundus [4]": {"tested_on": "Cyperus rotundus", "experiment": "Herbicidal activity against Cyperus rotundus in Abelmoschus esculentus plots assessed as weed recovery at 0.66 kg a.i/ha after 2 weeks (reference value: 60.1 +/- 0.46 %)", "format": "functional"}, "Calopogonium mucunoides [5]": {"tested_on": "Calopogonium mucunoides", "experiment": "Herbicidal activity against Calopogonium mucunoides in Abelmoschus esculentus plots assessed as weed cover at 1.32 kg a.i/ha after 2 weeks (reference value: 63.5 +/- 0.29 %)", "format": "functional"}, "Ageratum conyzoides [6]": {"tested_on": "Ageratum conyzoides", "experiment": "Herbicidal activity against Ageratum conyzoides in Corchorus olitorius plots assessed as weed cover at 1.32 kg a.i/ha after 7 weeks (reference value: 1.7 +/- 0.56 %)", "format": "functional"}, "Euphorbia heterophylla [7]": {"tested_on": "Euphorbia heterophylla", "experiment": "Herbicidal activity against Euphorbia heterophylla in Corchorus olitorius plots assessed as weed recovery at 0.33 kg a.i/ha after 2 weeks (reference value: 78.3 +/- 0.74 %)", "format": "functional"}, "Corchorus olitorius [8]": {"tested_on": "Corchorus olitorius", "experiment": "Phytotoxicity in Corchorus olitorius assessed as root length at 1.32 kg a.i/ha treated to soil after 7 weeks (reference value: 16.9 +/- 0.09 mm)", "format": "organism-based", "settings": "in vivo, other, 1176 h"}, "Corchorus olitorius [9]": {"tested_on": "Corchorus olitorius", "experiment": "Phytotoxicity in Corchorus olitorius assessed as seedling emergence at 1.32 kg a.i/ha treated to soil after 7 weeks (reference value: 95 +/- 0.05 %)", "format": "organism-based", "settings": "in vivo, other, 1176 h"}, "Ageratum conyzoides [10]": {"tested_on": "Ageratum conyzoides", "experiment": "Herbicidal activity against Ageratum conyzoides in Corchorus olitorius plots assessed as weed cover at 1.32 kg a.i/ha after 2 weeks (reference value: 81.7 +/- 0.43 %)", "format": "functional"}, "Talinum fruticosum [11]": {"tested_on": "Talinum fruticosum", "experiment": "Herbicidal activity against Talinum fruticosum in Corchorus olitorius plots assessed as weed cover at 0.99 kg a.i/ha after 7 weeks (reference value: 1.7 +/- 0.56 %)", "format": "functional"}, "Ageratum conyzoides [12]": {"tested_on": "Ageratum conyzoides", "experiment": "Herbicidal activity against Ageratum conyzoides in Abelmoschus esculentus plots assessed as weed recovery at 0.33 kg a.i/ha after 2 weeks (reference value: 60.1 +/- 0.46 %)", "format": "functional"}, "Calopogonium mucunoides [13]": {"tested_on": "Calopogonium mucunoides", "experiment": "Herbicidal activity against Calopogonium mucunoides in Abelmoschus esculentus plots assessed as minor weed growth at 0.66 kg a.i/ha after 2 weeks", "format": "functional"}, "Corchorus olitorius [14]": {"tested_on": "Corchorus olitorius", "experiment": "Phytotoxicity in Corchorus olitorius assessed as shoot length at 0.33 kg a.i/ha treated to soil after 7 weeks (reference value: 23.7 +/- 0.10 mm)", "format": "organism-based", "settings": "in vivo, other, 1176 h"}, "Calopogonium mucunoides [15]": {"tested_on": "Calopogonium mucunoides", "experiment": "Herbicidal activity against Calopogonium mucunoides in Corchorus olitorius plots assessed as weed cover at 0.99 kg a.i/ha after 7 weeks (reference value: 1.7 +/- 0.56 %)", "format": "functional"}, "Euphorbia heterophylla [16]": {"tested_on": "Euphorbia heterophylla", "experiment": "Herbicidal activity against Euphorbia heterophylla in Corchorus olitorius plots assessed as weed cover at 0.66 kg a.i/ha after 4 weeks (reference value: 20.1+/- 0.57 %)", "format": "functional"}, "Ageratum conyzoides [17]": {"tested_on": "Ageratum conyzoides", "experiment": "Herbicidal activity against Ageratum conyzoides in Abelmoschus esculentus plots assessed as major weed growth at 0.33 kg a.i/ha after 2 weeks", "format": "functional"}, "Ageratum conyzoides [18]": {"tested_on": "Ageratum conyzoides", "experiment": "Herbicidal activity against Ageratum conyzoides in Abelmoschus esculentus plots assessed as weed cover at 0.33 kg a.i/ha after 2 weeks (reference value: 63.5 +/- 0.29 %)", "format": "functional"}, "Calopogonium mucunoides [19]": {"tested_on": "Calopogonium mucunoides", "experiment": "Herbicidal activity against Calopogonium mucunoides in Corchorus olitorius plots assessed as weed cover at 0.99 kg a.i/ha after 2 weeks (reference value: 81.7 +/- 0.43 %)", "format": "functional"}, "[20]": {"tested_on": "Rottboellia cochinchinensis", "experiment": "Herbicidal activity against Rottboellia cochinchinensis in Abelmoschus esculentus plots assessed as weed cover at 0.33 kg a.i/ha after 4 weeks (reference value: 22.6 +/- 0.49 %)", "format": "functional"}, "Cyperus rotundus [21]": {"tested_on": "Cyperus rotundus", "experiment": "Herbicidal activity against Cyperus rotundus in Corchorus olitorius plots assessed as weed cover at 0.66 kg a.i/ha after 4 weeks (reference value: 20.1+/- 0.57 %)", "format": "functional"}, "Abelmoschus esculentus [22]": {"tested_on": "Abelmoschus esculentus", "experiment": "Phytotoxicity in Abelmoschus esculentus assessed as root length at 0.66 kg a.i/ha treated to soil after 7 weeks (reference value: 2.9 +/- 0.45 mm)", "format": "organism-based", "settings": "in vivo, other, 1176 h"}, "Corchorus olitorius [23]": {"tested_on": "Corchorus olitorius", "experiment": "Phytotoxicity in Corchorus olitorius assessed as root length at 0.33 kg a.i/ha applied as solution after 7 weeks (reference value: 14.3 +/- 1.06 mm)", "format": "organism-based", "settings": "in vivo, other, 1176 h"}, "Calopogonium mucunoides [24]": {"tested_on": "Calopogonium mucunoides", "experiment": "Herbicidal activity against Calopogonium mucunoides in Abelmoschus esculentus plots assessed as weed recovery at 0.99 kg a.i/ha after 2 weeks (reference value: 60.1 +/- 0.46 %)", "format": "functional"}, "Calopogonium mucunoides [25]": {"tested_on": "Calopogonium mucunoides", "experiment": "Herbicidal activity against Calopogonium mucunoides in Abelmoschus esculentus plots assessed as weed cover at 1.32 kg a.i/ha after 7 weeks (reference value: 14.7 +/- 0.46 %)", "format": "functional"}, "Synedrella nodiflora [26]": {"tested_on": "Synedrella nodiflora", "experiment": "Herbicidal activity against Synedrella nodiflora in Corchorus olitorius plots assessed as weed cover at 0.33 kg a.i/ha after 4 weeks (reference value: 20.1+/- 0.57 %)", "format": "functional"}, "Talinum fruticosum [27]": {"tested_on": "Talinum fruticosum", "experiment": "Herbicidal activity against Talinum fruticosum in Corchorus olitorius plots assessed as minor weed growth at 0.99 kg a.i/ha after 2 weeks", "format": "functional"}, "Chromolaena odorata": {"tested_on": "Chromolaena odorata", "experiment": "Herbicidal activity against Chromolaena odorata in Corchorus olitorius plots assessed as weed cover at 0.33 kg a.i/ha after 7 weeks (reference value: 1.7 +/- 0.56 %)", "format": "functional"}, "Corchorus olitorius [28]": {"tested_on": "Corchorus olitorius", "experiment": "Phytotoxicity in Corchorus olitorius assessed as root length at 1.32 kg a.i/ha applied as solution after 7 weeks (reference value: 14.3 +/- 1.06 mm)", "format": "organism-based", "settings": "in vivo, other, 1176 h"}, "Euphorbia heterophylla [29]": {"tested_on": "Euphorbia heterophylla", "experiment": "Herbicidal activity against Euphorbia heterophylla in Corchorus olitorius plots assessed as weed cover at 0.99 kg a.i/ha after 2 weeks (reference value: 81.7 +/- 0.43 %)", "format": "functional"}, "Synedrella nodiflora [30]": {"tested_on": "Synedrella nodiflora", "experiment": "Herbicidal activity against Synedrella nodiflora in Corchorus olitorius plots assessed as weed cover at 1.32 kg a.i/ha after 4 weeks (reference value: 20.1+/- 0.57 %)", "format": "functional"}, "Synedrella nodiflora [31]": {"tested_on": "Synedrella nodiflora", "experiment": "Herbicidal activity against Synedrella nodiflora in Abelmoschus esculentus plots assessed as weed cover at 0.99 kg a.i/ha after 2 weeks (reference value: 63.5 +/- 0.29 %)", "format": "functional"}, "Talinum fruticosum [32]": {"tested_on": "Talinum fruticosum", "experiment": "Herbicidal activity against Talinum fruticosum in Abelmoschus esculentus plots assessed as weed recovery at 0.99 kg a.i/ha after 2 weeks (reference value: 60.1 +/- 0.46 %)", "format": "functional"}, "Asteraceae": {"tested_on": "Asteraceae", "experiment": "Herbicidal activity against Aspilia africana in Corchorus olitorius plots assessed as minor weed growth at 0.66 kg a.i/ha after 2 weeks", "format": "functional"}, "Corchorus olitorius [33]": {"tested_on": "Corchorus olitorius", "experiment": "Phytotoxicity in Corchorus olitorius assessed as shoot length at 0.99 kg a.i/ha treated to soil after 7 weeks (reference value: 23.7 +/- 0.10 mm)", "format": "organism-based", "settings": "in vivo, other, 1176 h"}, "Corchorus olitorius [34]": {"tested_on": "Corchorus olitorius", "experiment": "Phytotoxicity in Corchorus olitorius assessed as shoot length at 1.32 kg a.i/ha treated to soil after 7 weeks (reference value: 23.7 +/- 0.10 mm)", "format": "organism-based", "settings": "in vivo, other, 1176 h"}}}
{"smiles": "CCC(CC)Nc1c([N+](=O)[O-])cc(C)c(C)c1[N+](=O)[O-]", "note": "[PENDIMETHALIN]", "values": [{"measurement": "Activity", "setting": "Abelmoschus esculentus [1]", "result": 5.6, "unit": "mm"}, {"measurement": "Activity", "setting": "Abelmoschus esculentus [2]", "result": 53.8, "unit": "%"}, {"measurement": "Activity", "setting": "[3]", "result": 63.3, "unit": "%"}, {"measurement": "Activity", "setting": "Cyperus rotundus [4]", "result": 47.9, "unit": "%"}, {"measurement": "Activity", "setting": "Calopogonium mucunoides [5]", "result": 45, "unit": "%"}, {"measurement": "Activity", "setting": "Ageratum conyzoides [6]", "result": 95, "unit": "%"}, {"measurement": "Activity", "setting": "Euphorbia heterophylla [7]", "result": 31.7, "unit": "%"}, {"measurement": "Activity", "setting": "Corchorus olitorius [8]", "result": 14.7, "unit": "mm"}, {"measurement": "Activity", "setting": "Corchorus olitorius [9]", "result": 83.3, "unit": "%"}, {"measurement": "Activity", "setting": "Ageratum conyzoides [10]", "result": 41.7, "unit": "%"}, {"measurement": "Activity", "setting": "Talinum fruticosum [11]", "result": 95, "unit": "%"}, {"measurement": "Activity", "setting": "Ageratum conyzoides [12]", "result": 39.2, "unit": "%"}, {"measurement": "Activity", "setting": "Calopogonium mucunoides [13]", "result": "1 /m2"}, {"measurement": "Activity", "setting": "Corchorus olitorius [14]", "result": 18.8, "unit": "mm"}, {"measurement": "Activity", "setting": "Calopogonium mucunoides [15]", "result": 95, "unit": "%"}, {"measurement": "Activity", "setting": "Euphorbia heterophylla [16]", "result": 63.3, "unit": "%"}, {"measurement": "Activity", "setting": "Ageratum conyzoides [17]", "result": "31 /m2"}, {"measurement": "Activity", "setting": "Ageratum conyzoides [18]", "result": 56.8, "unit": "%"}, {"measurement": "Activity", "setting": "Calopogonium mucunoides [19]", "result": 51.7, "unit": "%"}, {"measurement": "Activity", "setting": "[20]", "result": 53.8, "unit": "%"}, {"measurement": "Activity", "setting": "Cyperus rotundus [21]", "result": 63.3, "unit": "%"}, {"measurement": "Activity", "setting": "Abelmoschus esculentus [22]", "result": 1.4, "unit": "mm"}, {"measurement": "Activity", "setting": "Corchorus olitorius [23]", "result": 3.1, "unit": "mm"}, {"measurement": "Activity", "setting": "Calopogonium mucunoides [24]", "result": 36.2, "unit": "%"}, {"measurement": "Activity", "setting": "Calopogonium mucunoides [25]", "result": 82.4, "unit": "%"}, {"measurement": "Activity", "setting": "Synedrella nodiflora [26]", "result": 73.3, "unit": "%"}, {"measurement": "Activity", "setting": "Talinum fruticosum [27]", "result": "1 /m2"}, {"measurement": "Activity", "setting": "Chromolaena odorata", "result": 100, "unit": "%"}, {"measurement": "Activity", "setting": "Corchorus olitorius [28]", "result": 2.4, "unit": "mm"}, {"measurement": "Activity", "setting": "Euphorbia heterophylla [29]", "result": 51.7, "unit": "%"}, {"measurement": "Activity", "setting": "Synedrella nodiflora [30]", "result": 33.3, "unit": "%"}, {"measurement": "Activity", "setting": "Synedrella nodiflora [31]", "result": 47.9, "unit": "%"}, {"measurement": "Activity", "setting": "Talinum fruticosum [32]", "result": 36.2, "unit": "%"}, {"measurement": "Activity", "setting": "Asteraceae", "result": "1 /m2"}, {"measurement": "Activity", "setting": "Corchorus olitorius [33]", "result": 22.5, "unit": "mm"}, {"measurement": "Activity", "setting": "Corchorus olitorius [34]", "result": 19.4, "unit": "mm"}]}
